Data taken from article PMC6968633, “Synthesis, antibacterial and anticancer activity, and docking study of aminoguanidines containing an alkynyl moiety” (Journal of Enzyme Inhibition and Medicinal Chemistry, 2019).
Values after ≈ are worked out from the molar mass of the structure shown.

Key:
[1] = tested on: Staphyiococcus aureus CMCC 25923; assay: Antibacterial MIC, serial dilution; format: cell-based, Staphylococcus aureus; details: Staphylococcus aureus, CMCC25923; S. aureus CMCC 25923, 24 h, 37 °C; read-out: MIC
Procedure: (§1) Test bacteria were grown to mid-log phase in Mueller–Hinton broth (MHB) or Tryptone Soya Broth (TSB) and diluted 1000-fold in the same medium. Bacteria (10^5 CFU/mL) were inoculated into MHB or TSB and dispensed at 0.2 ml/well into a 96-well microtiter plate. As positive controls, gatifloxacin, moxifloxacin, norfloxacin, oxacillin, and penicillin were used. […] Bacterial growth was determined by measuring the absorption at 630 nm using a microplate reader. All experiments were carried out three times.
(§2) The evaluation of antibacterial activity of all compounds (3a–3j and 6a–6k) was performed by a serial dilution method to determine the MIC against a panel of pathogens comprising five Gram-positive strains (S. aureus (CMCC(B) 26003 and CMCC 25923), Streptococcus mutans BNCC 336931, Enterococcus faecalis CMCC 29212, and Bacillus subtilis CMCC 63501), four Gram-negative strains (E. coli (CMCC 25922 and CMCC 44568) and P. aeruginosa (CMCC 27853 and CMCC 10104)), as well as three methicillin-resistant clinical isolates (S. aureus ATCC 43300 and ATCC 33591, P. aeruginosa ATCC BAA-2111). The results are described in Tables 1 and 2. Gatifloxacin, moxifloxacin, norfloxacin, oxacillin, and penicillin were used as positive controls.

[2] = tested on: Bacillus subtilis CMCC 63501; assay: Antibacterial MIC, serial dilution; format: cell-based; details: Bacillus subtilis, CMCC63501; B. subtilis CMCC 63501, 24 h, 37 °C; read-out: MIC
Procedure: as §1, §2

[3] = tested on: Enterococcus faecalis CMCC 29212; assay: Antibacterial MIC, serial dilution; format: cell-based; details: Enterococcus faecalis, CMCC29212; E. faecalis CMCC 29212, 24 h, 37 °C; read-out: MIC
Procedure: as §1, §2

[4] = tested on: Escherichia coli CMCC 25922; assay: Antibacterial MIC, serial dilution; format: cell-based; details: Escherichia coli, CMCC25922; E. coli CMCC 25922, 24 h, 37 °C; read-out: MIC
Procedure: as §1, §2

[5] = tested on: Escherichia coli CMCC 44568; assay: Antibacterial MIC, serial dilution; format: cell-based; details: Escherichia coli, CMCC44568; E. coli CMCC 44568, 24 h, 37 °C; read-out: MIC
Procedure: as §1, §2

[6] = tested on: Pseudomonas aeruginosa CMCC 10104; assay: Antibacterial MIC, serial dilution; format: cell-based; details: Pseudomonas aeruginosa, CMCC10104; P. aeruginosa CMCC 10104, 24 h, 37 °C; read-out: MIC
Procedure: as §1, §2

[7] = tested on: Pseudomonas aeruginosa CMCC 27853; assay: Antibacterial MIC, serial dilution; format: cell-based; details: Pseudomonas aeruginosa, CMCC27853; P. aeruginosa CMCC 27853, 24 h, 37 °C; read-out: MIC
Procedure: as §1, §2

[8] = tested on: Staphylococcus aureus CMCC(B)26003; assay: Antibacterial MIC, serial dilution; format: cell-based; details: Staphylococcus aureus; S. aureus CMCC(B)26003, 24 h, 37 °C; read-out: MIC
Procedure: as §1, §2

[9] = tested on: Streptococcus mutans BNCC 336931; assay: Antibacterial MIC, serial dilution; format: cell-based; details: Streptococcus mutans, BNCC336931; S. mutans BNCC 336931, 24 h, 37 °C; read-out: MIC
Procedure: as §1, §2

tested bacterial strains = assay: Antibacterial MIC, panel of tested bacterial strains; format: cell-based; details: against almost all of the tested strains
Procedure: as §1, §2

[10] = tested on: Staphylococcus aureus ATCC 33591; assay: Antibacterial MIC, multidrug-resistant clinical isolate; format: cell-based; details: Staphylococcus aureus, ATCC33591; multidrug-resistant S. aureus ATCC 33591; read-out: MIC
Procedure: as §1, §2

[11] = tested on: Staphylococcus aureus ATCC 43300; assay: as above; format: cell-based; details: Staphylococcus aureus, ATCC43300; multidrug-resistant S. aureus ATCC 43300; read-out: MIC
Procedure: as §1, §2

A549 = assay: Cytotoxicity, CCK-8 assay; format: cell-based; details: Homo sapiens, A549 lung cancer cells, 48 h
Procedure: (§3) A lung cancer cell line (A549), gastric cancer cell line (SGC7901) and human hepatocytes (L02) were used to test the anticancer activity and cytotoxicity of the new compounds. 5-Fluorouracil (5-FU) was used as the positive control against cancer cell lines. The A549, SGC7901 and L02 cells were grown in Dulbecco’s modified Eagle’s medium (DMEM) supplemented with 10% foetal bovine serum (FBS) and antibiotics (100 U/mL penicillin-streptomycin). Cells at 80–90% confluence were split by trypsin (0.25% in PBS; pH 7.4), and the medium was changed at 24 h intervals. The cells were cultured at 37 °C in a 5% CO2 incubator. The cells were passaged three times, then approximately 1 × 10^4 cells were seeded into each well of a 96-well plate and allowed to incubate to allow attachment of the cells to the surface. After 24 h, the medium was replaced with DMEM supplemented with 10% FBS containing various concentrations (0.1, 0.3, 1, 3, 10, and 30 μg/mL) of test compounds. Each concentration was tested in triplicate. After 48 h treatment, 20 µL of CCK-8 solution was added to each well and the optical density measured at 450 nm after 3 h using a microplate reader. The IC50 values were defined as the concentrations inhibiting 50% of cell growth.

SGC7901 = assay: Cytotoxicity, CCK-8 assay; format: cell-based; details: Homo sapiens, SGC-7901, SGC7901 gastric cancer cells, 48 h
Procedure: as §3

L02 = assay: Cytotoxicity, CCK-8 assay, normal cell line; format: cell-based; details: L02 normal human hepatocytes, 48 h
Procedure: as §3

[12] = tested on: Pseudomonas aeruginosa ATCC BAA-2111; assay: Antibacterial MIC, multidrug-resistant clinical isolate; format: cell-based; details: ATCCBAA2111, multidrug-resistant P. aeruginosa ATCC BAA-2111
Procedure: as §1, §2

Row | Structure (SMILES) | MIC [1] [µg/mL] | MIC [2] [µg/mL] | MIC [3] [µg/mL] | MIC [4] [µg/mL] | MIC [5] [µg/mL] | MIC [6] [µg/mL] | MIC [7] [µg/mL] | MIC [8] [µg/mL] | MIC [9] [µg/mL] | MIC (tested bacterial strains) [µg/mL] | melting point [°C] | MIC [10] [µg/mL] | MIC [11] [µg/mL] | IC50 (A549) [µg/mL] | IC50 (SGC7901) [µg/mL] | IC50 (L02) [µg/mL] | MIC [12] [µg/mL]
1 | N=C(N)NN=Cc1ccc(C#CC#Cc2ccc(F)cc2)cc1 [Compound 6d, 2-(4-((4-Fluorophenyl)buta-1,3-diyn-1-yl)benzylidene)hydrazine-1-carboximidamide] | 4 (≈ 13.1 µM) | > 128 | 128 (≈ 421 µM) | > 128 | > 128 | > 128 | > 128 | 64 (≈ 210 µM) | > 128 | ≥ 128 | 206 to 210 | – | – | – | – | – | –
2 | N=C(N)NN=Cc1ccc(C#CC#Cc2ccccc2Cl)cc1 [Compound 6e, 2-(4-((2-Chlorophenyl)buta-1,3-diyn-1-yl)benzylidene)hydrazine-1-carboximidamide] | 128 (≈ 399 µM) | 4 (≈ 12.5 µM) | 0.5 (≈ 1.56 µM) | 8 (≈ 24.9 µM) | 64 (≈ 200 µM) | 4 (≈ 12.5 µM) | > 128 | 0.25 (≈ 0.779 µM) | 1 (≈ 3.12 µM) | – | 207 to 210 | 0.5 (≈ 1.56 µM) | 8 (≈ 24.9 µM) | 3.62 (≈ 11.3 µM) | 1.48 (≈ 4.61 µM) | 14.8 (≈ 46.1 µM) | –
3 | N=C(N)NN=Cc1ccc(C#CC#Cc2ccc(Cl)cc2)cc1 [Compound 6g, 2-(4-((4-Chlorophenyl)buta-1,3-diyn-1-yl)benzylidene)hydrazine-1-carboximidamide] | > 128 | > 128 | 128 (≈ 399 µM) | 128 (≈ 399 µM) | 128 (≈ 399 µM) | > 128 | > 128 | > 128 | > 128 | ≥ 128 | 202 to 205 | – | – | – | – | – | –
4 | N=C(N)NN=Cc1ccc(C#CC#Cc2cccc(Br)c2)cc1 [Compound 6i, 2-(4-((3-Bromophenyl)buta-1,3-diyn-1-yl)benzylidene)hydrazine-1-carboximidamide] | 128 (≈ 350 µM) | 2 (≈ 5.48 µM) | 0.5 (≈ 1.37 µM) | 64 (≈ 175 µM) | 128 (≈ 350 µM) | 128 (≈ 350 µM) | > 128 | 2 (≈ 5.48 µM) | 0.5 (≈ 1.37 µM) | ≥ 128 | 196 to 198 | – | – | – | – | – | –
5 | Cc1cccc(C#CC#Cc2ccc(C=NNC(=N)N)cc2)c1 [Compound 6k, 2-(4-(m-Tolylbuta-1,3-diyn-1-yl)benzylidene)hydrazine-1-carboximidamide] | 32 (≈ 107 µM) | 2 (≈ 6.66 µM) | 0.5 (≈ 1.66 µM) | 4 (≈ 13.3 µM) | 128 (≈ 426 µM) | 4 (≈ 13.3 µM) | > 128 | 1 (≈ 3.33 µM) | 0.5 (≈ 1.66 µM) | – | 202 to 204 | – | – | 3.58 (≈ 11.9 µM) | 0.55 (≈ 1.83 µM) | 14.8 (≈ 49.2 µM) | –
6 | COc1c(N2CCNC(C)C2)c(F)cc2c(=O)c(C(=O)O)cn(C3CC3)c12 (stereo not shown) [Gatifloxacin, reference compound] | 0.125 (≈ 0.333 µM) | 2 (≈ 5.33 µM) | 1 (≈ 2.66 µM) | 0.125 (≈ 0.333 µM) | 0.125 (≈ 0.333 µM) | 2 (≈ 5.33 µM) | 2 (≈ 5.33 µM) | 0.125 (≈ 0.333 µM) | 1 (≈ 2.66 µM) | – | – | 0.25 (≈ 0.666 µM) | 0.5 (≈ 1.33 µM) | – | – | – | 1 (≈ 2.66 µM)
